Assays:
[1] = test system: eIF2•GTP•Met-tRNAi ternary complex; experiment: Ternary complex assay (ATF-4 assay), dual luciferase firefly/renilla ratio; type: cell-based, mouse; conditions: Mus musculus; for maximal fold induction at 40 µM: read-out: ATF-4 Xmax @ 40 μM
From the text: For assay development, a bi-directional plasmid was designed in which a common promoter/enhancer complex drives the transcription of firefly luciferase (F-luc) ORF fused to the 5′ untranslated region (UTR) of ATF-4, and of the renilla luciferase (R-luc) ORF fused to a 90-nucleotide 5′ UTR derived from the plasmid (FIG. 6A). Because the tetracycline-regulated transactivator ((tTA), required for driving transcription from this vector) is not normally expressed in the mammalian cells, stable KLN cancer cells were constructed that expressed tTA (KLN-tTA).
The KLN-tTA colonies that drove expression of reporter genes from pBISA-DL plasmid were selected by transient transfection and dual luciferase assay. One of these KLN-tTA cell lines was transfected with the pBISA-DL^(ATF-4) expression vector, stable colonies were selected by dual luciferase assay and expanded.
Plasmids and Ternary Complex Assay
(ATF-4 Assay). Briefly, bi-directional mammalian expression vector pBI (Clontech, CA) was modified to expand the multiple cloning sites (MCSs) and designated thereafter as pBISA. This vector contains seven copies of the tetracycline-regulated transactivator response element (TRE), which together act as core promoter/enhancer. The TRE is flanked on both sides by minimal human cytomegalovirus (CMV) minimal promoters allowing bi-directional transcription and two MCSs. Firefly and renilla luciferases were subcloned into MCS-I and MCS-II, respectively. This plasmid, designated pBISA-DL, transcribes two mRNAs that contain the 90 nucleotide plasmid derived 5′UTR (same sequence in both mRNAs), and the ORF encoding either firefly or renilla luciferase followed by a polyadenylation sequence as described in Ziegeler, G.; Ming, J.; Koseki, J. C.; Sevinc, S.; Chen, T.; Ergun, S.; Qin, X.; Aktas, B. H. J. Biol. Chem. 2010, 285, 15408 hereby incorporated by reference. This plasmid was further modified by inserting the 5′UTR of ATF-4 into MCS-I in front of the firefly luciferase mRNA. Transcription from this direction generates an mRNA that contains the firefly luciferase ORF preceded by a 5′UTR composed of 90 nucleotides derived from the plasmid and 267 nucleotides derived from the 5′UTR of ATF-4 mRNA. Transcription from the other direction generates an mRNA that contains the renilla luciferase ORF proceeded only by the 90-nucleotide plasmid-derived sequence in the 5′UTR. This expression plasmid is called pBISA-DL(ATF-4). In the dual luciferase assay, cells expressing firefly and renilla luciferases were lysed and the extracts assayed with a Dual-Glo Luciferase assay kit, per manufacturer's instruction (Promega Inc., Madison, Wis.). The data calculations were carried out as the ratio of firefly to renilla luciferase signal as described in Chen, T.; Ozel, D.; Qiao, Y.; Harbinski, F.; Chen, L.; Denoyelle, S.; He, X.; Zvereva, N.; Supko, J. G.; Chorev, M.; Halperin, J. A.; Aktas, B. H. Nat. Chem. Biol. 2011, 7, 610 hereby incorporated by reference.

KLN = experiment: Cell growth assay (sulforhodamine B), KLN cells; type: cell-based, mouse; conditions: Mus musculus, 120 h, 5 days, SRB
Procedure: […] Plates were then incubated with 0.4% SRB in 1% acetic acid for 1 h, washed with 1% acetic acid to remove the unbound dye, and air-dried. The bound dye was solubilized by addition of 10 mM Tris (pH 10), and the absorbance was determined in a Titertek Multiscan plate reader at 490 nm. The data calculations were carried out as described (the values for mean±SD of data from replicate wells are calculated): data are expressed in terms of % T/C [(OD of treated cells/OD of control cells)×100], as a measure of cell viability and survival in the presence of test materials. Calculations are also made for the concentration of test agents giving a T/C value of 50%, or 50% growth inhibition (IC50). With the SRB assay, a measure is made of the cell population density at time 0 (the time at which drugs are added) from two extra reference plates of inoculated cells fixed with TCA just prior to drug addition to the test plates. Thus, we have three measurements: control optical density (C), test optical density (T), and optical density at time zero (T0). The calculation is 100×[(T−T0)/(C−T0)]. If T is less than T0, cell killing has occurred and can be calculated from 100×[(T−T0)/T0]. Thus, for each drug-cell line combination, a dose-response curve is generated and three levels of effect are calculated.

CRL-2351 = experiment: Cell growth assay (sulforhodamine B), CRL-2351 cells; type: cell-based, human; conditions: Homo sapiens, 120 h, 5 days, SRB
Procedure: (§1) Adherent mouse (KLN) and human solid tumor cells (CRL-2351, and CRL-2813) were plated in 96-well plates and maintained for 5 days in the presence of 0.54 to 6 μM of individual compound, and cell proliferation was measured by the sulforhodamine B (SRB) assay as described in ref. 11: briefly, cells were fixed in 10% cold trichloroacetic acid at 4° C. for 1 h, extensively washed with double-distilled H2O and air-dried. Plates were then incubated with 0.4% SRB in 1% acetic acid for 1 h, washed with 1% acetic acid to remove the unbound dye, and air-dried. The bound dye was solubilized by addition of 10 mM Tris (pH 10), and the absorbance was determined in a Titertek Multiscan plate reader at 490 nm. The data calculations were carried out as described (the values for mean±SD of data from replicate wells are calculated): data are expressed in terms of % T/C [(OD of treated cells/OD of control cells)×100], as a measure of cell viability and survival in the presence of test materials. Calculations are also made for the concentration of test agents giving a T/C value of 50%, or 50% growth inhibition (IC50). With the SRB assay, a measure is made of the cell population density at time 0 (the time at which drugs are added) from two extra reference plates of inoculated cells fixed with TCA just prior to drug addition to the test plates. Thus, we have three measurements: control optical density (C), test optical density (T), and optical density at time zero (T0). The calculation is 100×[(T−T0)/(C−T0)]. If T is less than T0, cell killing has occurred and can be calculated from 100×[(T−T0)/T0]. Thus, for each drug-cell line combination, a dose-response curve is generated and three levels of effect are calculated.

CRL-2813 = experiment: Cell growth assay (sulforhodamine B), CRL-2813 cells; type: cell-based, human; conditions: Homo sapiens, CRL2813, 120 h, 5 days, SRB
Procedure: as §1

CC(C)(C)c1ccc(O)c(C2(c3ccccc3)C(=O)Nc3ccc(-c4ccc(N5CCOCC5)nc4)cc32)c1 (stereo not shown) [Sd231]
maximal fold induction at 80 µM ([1]; read-out: ATF-4 Xmax): 15.6 ± 0.4 | IC50 (KLN): 13.3 ± 2.4 µM | IC50 (CRL-2351): 1.8 ± 0.4 µM | IC50 (CRL-2813): 2.5 ± 1.5 µM

CC(=O)OCCOc1ccc(C(C)(C)C)cc1C1(c2cc(C(C)(C)C)ccc2O)C(=O)Nc2ccccc21 (stereo not shown) [HY084]
maximal fold induction at 80 µM ([1]; read-out: ATF-4 Xmax): 11.4 ± 0.4 | maximal fold induction at 40 µM [1]: 8.59 ± 1.67 | IC50 (KLN): 11.4 ± 0.2 µM | IC50 (CRL-2351): 2.7 ± 0.2 µM | IC50 (CRL-2813): 1.6 ± 0.4 µM

COC(=O)c1cccc2c1NC(=O)C2(c1ccc(OC)cc1)c1cc(C(C)(C)C)ccc1OCCN1CCOCC1 (stereo not shown) [Sd203, Methyl 3-{5-tert-butyl-2-[2-(morpholin-4-yl)ethoxy]phenyl}-3-(4-methoxyphenyl)-2-oxoindole-7-carboxylate]
maximal fold induction at 5 µM ([1]; cell prints 5 (uM), read-out: ATF-4 Xmax): 1.51 ± 0.3 | IC50 (KLN): 17 ± 3.5 µM | IC50 (CRL-2351): 16.3 ± 1.6 µM | IC50 (CRL-2813): 14.6 ± 2.8 µM

CC(C)(C)c1ccc(O)c(C2(c3cc(C(C)(C)C)ccc3OCCN3CCCCC3)C(=O)Nc3ccccc32)c1 (stereo not shown) [HY072]
maximal fold induction at 20 µM ([1]; read-out: ATF-4 Xmax): 4.15 ± 0.5 | IC50 (KLN): 2.9 ± 0.4 µM | IC50 (CRL-2351): 0.7 ± 0.1 µM | IC50 (CRL-2813): 3.35 ± 0.5 µM

COc1ccc(C2(c3cc(C(C)(C)C)ccc3O)C(=O)Nc3ccccc32)cc1 (stereo not shown) [Sd086]
maximal fold induction at 40 µM [1]: 5.6 ± 0.5 | IC50 (KLN): 15.7 ± 1.1 µM | IC50 (CRL-2351): 2.65 ± 0.1 µM | IC50 (CRL-2813): 2.75 ± 0.1 µM

CC(C)Oc1ccc(O)c(C2(c3ccccc3)C(=O)Nc3ccccc32)c1 (stereo not shown) [HY032, 3-(2-Hydroxy-5-Isopropoxyphenyl)-3-Phenylindolin-2-One]
maximal fold induction at 40 µM [1]: 4.65 ± 0.58 | IC50 (KLN): 16.1 ± 2.2 µM | IC50 (CRL-2351): 4.8 ± 1.6 µM | IC50 (CRL-2813): 10.5 ± 1.9 µM

COc1ccc(C(C)C)cc1C1(c2cc(C(C)C)ccc2O)C(=O)Nc2ccccc21 (stereo not shown) [HY161]
maximal fold induction at 40 µM [1]: 3.91 ± 0.65 | IC50 (KLN): > 20 µM | IC50 (CRL-2351): 7.2 ± 3 µM | IC50 (CRL-2813): 1.4 ± 0.09 µM

CC(C)(C)c1ccc(O)c(C2(c3ccccc3)C(=O)Nc3ccc4ncsc4c32)c1 (stereo not shown) [Sd233]
maximal fold induction at 40 µM [1]: 1.2 ± 0.05 | IC50 (KLN): 8 µM | IC50 (CRL-2351): 2.2 ± 1 µM | IC50 (CRL-2813): 0.95 ± 0.1 µM

COc1ccc(C2(c3cc(C(C)(C)C)ccc3OCCN3CCOCC3)C(=O)Nc3ccc(I)cc32)cc1 (stereo not shown) [Sd204, 3-{5-tert-butyl-2-[2-(morpholin-4-yl)ethoxy]phenyl}-5-iodo-3-(4-methoxyphenyl)indol-2-one]
maximal fold induction at 40 µM [1]: 4.5 ± 0.93 | IC50 (KLN): 12 ± 1.2 µM | IC50 (CRL-2351): 6.1 ± 1.7 µM | IC50 (CRL-2813): 2.6 ± 0.4 µM

O=C1Nc2ccccc2C1(c1cc(C2CCCC2)ccc1OCCO)c1cc(C2CCCC2)ccc1OCCO [HY058]
maximal fold induction at 20 µM ([1]; read-out: ATF-4 Xmax): 3.35 ± 0.74 | IC50 (KLN): 15.2 ± 1.1 µM | IC50 (CRL-2351): 2.4 ± 0.1 µM | IC50 (CRL-2813): 1.3 ± 0.4 µM

CC(C)(C)c1ccc(OCCN2CCNCC2)c(C2(c3ccccc3)C(=O)Nc3ccccc32)c1 (stereo not shown) [Sd049, 33-{5-tert-butyl-2-[2-(piperazin-1-yl)ethoxy]phenyl}-3-phenylindol-2-one]
maximal fold induction at 20 µM ([1]; read-out: ATF-4 Xmax): 2.1 ± 0.65 | IC50 (KLN): 1.2 ± 0.3 µM | IC50 (CRL-2351): 0.9 ± 0.1 µM | IC50 (CRL-2813): 12.8 ± 0.8 µM

CC(C)(C)c1ccc(OCC(=O)O)c(C2(c3ccccc3)C(=O)Nc3ccccc32)c1 (stereo not shown) [Sd177]
maximal fold induction at 80 µM ([1]; read-out: ATF-4 Xmax): 1.65 ± 0.04 | IC50 (KLN): > 20 µM | IC50 (CRL-2351): > 20 µM | IC50 (CRL-2813): > 20 µM

CCCCc1ccc(O)c(C2(c3cc(CCCC)ccc3O)C(=O)Nc3ccccc32)c1 [HY048, 3,3-Bis(5-Butyl-2-Hydroxyphenyl)Indolin-2-One]
maximal fold induction at 20 µM ([1]; read-out: ATF-4 Xmax): 5 ± 1.5 | IC50 (KLN): 14.3 ± 1.6 µM | IC50 (CRL-2351): 1.9 ± 0.5 µM | IC50 (CRL-2813): 3 µM

COc1ccc(C2(c3cc(C(C)(C)C)ccc3OCCN3CCOCC3)C(=O)Nc3ccccc32)cc1 (stereo not shown) [Sd139, 3-{5-tert-butyl-2-[2-(morpholin-4-yl)ethoxy]phenyl}-3-(4-methoxyphenyl)-indol-2-one]
maximal fold induction at 40 µM [1]: 6.3 ± 0.3 | IC50 (KLN): 4.3 ± 1 µM | IC50 (CRL-2351): 2.65 ± 1.5 µM | IC50 (CRL-2813): 2.4 ± 0.9 µM

CN(C)CCOc1ccc(C(C)(C)C)cc1C1(c2cc(C(C)(C)C)ccc2O)C(=O)N(CCN(C)C)c2ccccc21 (stereo not shown) [HY277]
maximal fold induction at 10 µM ([1]; 10 uM, read-out: ATF-4 Xmax): 14.3 ± 1.86 | IC50 (KLN): 0.3 ± 0.1 µM | IC50 (CRL-2351): 0.3 ± 0.11 µM | IC50 (CRL-2813): 0.9 ± 0.1 µM
